Results taken from ChEMBL document CHEMBL1159093, “Discovery and optimization of RO-85, a novel drug-like, potent, and selective P2X3 receptor antagonist” (Bioorg Med Chem Lett, 2010).
pIC50: −log10 of the molar value.

What was measured:
[1] = target: Adenosine receptor A1 (Homo sapiens) (UniProt P30542); assay: Displacement of [3H]DPCPX from human recombinant A1 receptor expressed in CHO cells at 10 uM after 60 mins by scintillation counting; assay type: cell-based
[2] = target: Adenosine receptor A3 (Homo sapiens) (UniProt P0DMS8); assay: Displacement of [125I]AB-MECA from human recombinant A3 receptor expressed in HEK293 cells at 10 uM after 120 mins by scintillation counting; assay type: cell-based
Sequence of Adenosine receptor A3 (Homo sapiens) (P0DMS8 whole entry): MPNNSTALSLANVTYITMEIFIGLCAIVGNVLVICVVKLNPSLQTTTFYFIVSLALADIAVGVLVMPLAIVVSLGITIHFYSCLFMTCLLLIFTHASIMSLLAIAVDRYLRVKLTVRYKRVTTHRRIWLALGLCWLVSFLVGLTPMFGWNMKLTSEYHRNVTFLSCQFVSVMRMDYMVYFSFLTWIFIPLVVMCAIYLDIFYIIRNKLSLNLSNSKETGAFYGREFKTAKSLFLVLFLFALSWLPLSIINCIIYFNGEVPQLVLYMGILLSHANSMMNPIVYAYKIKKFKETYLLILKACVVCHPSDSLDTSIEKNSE

[3] = target: Adrenergic receptor alpha-1 (Rattus norvegicus) (UniProt P15823+P23944+P43140); assay: Displacement of [3H]prazosin from alpha1 receptor in rat cerebral cortex at 10 uM after 60 mins by scintillation counting; assay type: tissue-based
[4] = target: Adrenergic receptor alpha-2 (Rattus norvegicus) (UniProt P22086+P19328+P22909); assay: Displacement of [3H]RX 821002 from alpha2 receptor in rat cerebral cortex at 10 uM after 60 mins by scintillation counting; assay type: tissue-based
[5] = target: Beta-1 adrenergic receptor (Homo sapiens) (UniProt P08588); assay: Displacement of [3H]RX 821002 from human recombinant beta-1 adrenergic receptor expressed in HEK293 cells at 10 uM after 60 mins by scintillation counting; assay type: cell-based
Sequence of Beta-1 adrenergic receptor (Homo sapiens) (P08588 whole entry, looked up): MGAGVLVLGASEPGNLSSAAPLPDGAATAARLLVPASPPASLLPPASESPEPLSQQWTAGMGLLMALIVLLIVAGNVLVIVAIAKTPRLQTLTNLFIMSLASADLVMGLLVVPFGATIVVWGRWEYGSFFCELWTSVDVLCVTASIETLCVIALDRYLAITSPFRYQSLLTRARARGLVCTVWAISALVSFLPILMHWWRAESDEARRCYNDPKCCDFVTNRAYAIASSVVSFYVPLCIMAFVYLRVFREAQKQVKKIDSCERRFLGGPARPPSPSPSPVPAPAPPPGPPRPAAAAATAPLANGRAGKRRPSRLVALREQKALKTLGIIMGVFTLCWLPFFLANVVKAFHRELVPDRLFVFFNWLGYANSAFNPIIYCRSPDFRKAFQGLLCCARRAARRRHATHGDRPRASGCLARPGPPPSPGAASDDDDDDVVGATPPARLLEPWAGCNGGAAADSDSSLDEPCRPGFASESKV

[6] = target: D(1A) dopamine receptor (Homo sapiens) (UniProt P21728); assay: Displacement of [3H]SCH 23390 from human recombinant dopamine D1 receptor expressed in CHO cells at 10 uM after 60 mins by scintillation counting; assay type: cell-based
Sequence of D(1A) dopamine receptor (Homo sapiens) (P21728 whole entry): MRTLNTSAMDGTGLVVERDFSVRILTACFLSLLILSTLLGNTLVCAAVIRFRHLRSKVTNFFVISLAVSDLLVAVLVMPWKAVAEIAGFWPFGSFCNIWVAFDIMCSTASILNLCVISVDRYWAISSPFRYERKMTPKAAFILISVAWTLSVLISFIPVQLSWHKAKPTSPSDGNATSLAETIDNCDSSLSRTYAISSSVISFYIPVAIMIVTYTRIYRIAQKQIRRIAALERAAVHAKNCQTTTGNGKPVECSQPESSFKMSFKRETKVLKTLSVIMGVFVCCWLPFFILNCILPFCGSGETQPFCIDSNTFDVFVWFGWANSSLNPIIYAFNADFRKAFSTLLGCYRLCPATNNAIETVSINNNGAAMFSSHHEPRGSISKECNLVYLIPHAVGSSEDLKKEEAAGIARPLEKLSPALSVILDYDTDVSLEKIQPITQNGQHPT

[7] = target: D(4) dopamine receptor (Homo sapiens) (UniProt P21917); assay: Displacement of [3H]methyl-spiperone from human recombinant D4.4 receptor expressed in CHO cells at 10 uM after 60 mins by scintillation counting; assay type: cell-based
Sequence of D(4) dopamine receptor (Homo sapiens) (P21917 whole entry): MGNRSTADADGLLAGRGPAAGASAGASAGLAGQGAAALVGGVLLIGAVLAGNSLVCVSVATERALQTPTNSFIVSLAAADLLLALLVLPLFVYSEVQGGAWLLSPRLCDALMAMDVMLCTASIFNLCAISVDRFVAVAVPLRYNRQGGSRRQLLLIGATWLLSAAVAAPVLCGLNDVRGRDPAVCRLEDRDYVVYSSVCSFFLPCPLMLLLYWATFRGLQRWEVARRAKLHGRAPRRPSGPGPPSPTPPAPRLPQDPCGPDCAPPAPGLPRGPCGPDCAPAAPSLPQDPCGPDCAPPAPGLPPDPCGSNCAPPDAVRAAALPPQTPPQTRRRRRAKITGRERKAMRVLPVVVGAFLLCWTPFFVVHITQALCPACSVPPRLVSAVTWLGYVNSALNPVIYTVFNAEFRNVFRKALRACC

[8] = target: Histamine H1 receptor (Homo sapiens) (UniProt P35367); assay: Displacement of [3H]pyrilamine from human recombinant histamine H1 receptor expressed in HEK293 cells at 10 uM after 60 mins by scintillation counting; assay type: cell-based
[9] = target: Prostacyclin receptor (Homo sapiens) (UniProt P43119); assay: Displacement of [3H]iloprost from human recombinant IP receptor expressed in HEK293 cells at 10 uM after 60 mins by scintillation counting; assay type: cell-based
Rattus norvegicus [10] = organism: Rattus norvegicus; assay: Displacement of [3H]a,b-MeATP from P2X receptor in rat urinary bladder at 10 uM after 120 mins by scintillation counting
[11] = target: 5-hydroxytryptamine receptor 2B (Homo sapiens) (UniProt P41595); assay: Displacement of [125I](+/-)DOI from human recombinant 5HT2B receptor expressed in CHO cells at 10 uM after 60 mins by scintillation counting; assay type: cell-based
Sequence of 5-hydroxytryptamine receptor 2B (Homo sapiens) (P41595 whole entry): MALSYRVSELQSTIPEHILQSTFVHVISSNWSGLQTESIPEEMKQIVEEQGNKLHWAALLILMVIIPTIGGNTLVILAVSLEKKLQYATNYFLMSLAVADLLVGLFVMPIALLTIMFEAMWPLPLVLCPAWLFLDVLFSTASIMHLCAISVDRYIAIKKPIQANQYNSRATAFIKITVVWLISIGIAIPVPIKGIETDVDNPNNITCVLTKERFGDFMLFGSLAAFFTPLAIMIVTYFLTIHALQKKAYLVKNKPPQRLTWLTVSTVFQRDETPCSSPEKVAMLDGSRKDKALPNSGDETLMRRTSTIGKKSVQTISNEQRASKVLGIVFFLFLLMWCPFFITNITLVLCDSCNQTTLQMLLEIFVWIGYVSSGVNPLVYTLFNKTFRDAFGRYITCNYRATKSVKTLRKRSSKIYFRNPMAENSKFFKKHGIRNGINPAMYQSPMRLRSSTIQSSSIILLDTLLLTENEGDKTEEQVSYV

[12] = target: 5-hydroxytryptamine receptor 5A (Homo sapiens) (UniProt P47898); assay: Displacement of [3H]LSD from human recombinant 5HT5A receptor expressed in HEK293 cells at 10 uM after 120 mins by scintillation counting; assay type: cell-based
Sequence of 5-hydroxytryptamine receptor 5A (Homo sapiens) (P47898 whole entry): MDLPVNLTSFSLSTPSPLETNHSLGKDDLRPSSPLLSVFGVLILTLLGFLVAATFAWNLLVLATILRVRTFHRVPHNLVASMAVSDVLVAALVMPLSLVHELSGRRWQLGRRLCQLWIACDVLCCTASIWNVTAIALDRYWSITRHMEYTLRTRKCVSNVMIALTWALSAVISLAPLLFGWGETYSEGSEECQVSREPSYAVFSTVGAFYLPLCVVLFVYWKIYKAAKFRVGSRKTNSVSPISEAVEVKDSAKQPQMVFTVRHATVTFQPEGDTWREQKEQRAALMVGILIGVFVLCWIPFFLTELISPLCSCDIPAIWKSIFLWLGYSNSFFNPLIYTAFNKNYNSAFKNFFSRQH

[13] = target: 5-hydroxytryptamine receptor 6 (Homo sapiens) (UniProt P50406); assay: Displacement of [3H]LSD from human recombinant 5HT6 receptor expressed in CHO cells at 10 uM after 120 mins by scintillation counting; assay type: cell-based
[14] = target: 5-hydroxytryptamine receptor 7 (Homo sapiens) (UniProt P34969); assay: Displacement of [3H]LSD from human recombinant 5HT7 receptor expressed in CHO cells at 10 uM after 120 mins by scintillation counting; assay type: cell-based
[15] = target: Type-2 angiotensin II receptor (Homo sapiens) (UniProt P50052); assay: Displacement of [125I]CGP 42112A from human recombinant AT2 receptor expressed in HEK293 cells at 10 uM after 4 hrs by scintillation counting; assay type: cell-based
Rattus norvegicus [16] = organism: Rattus norvegicus; assay: Displacement of [125I][Tyr4]bombesin from Bombesin receptor in rat cerebral cortex at 10 uM after 60 mins by scintillation counting; assay type: tissue-based
[17] = target: C-C chemokine receptor type 1 (Homo sapiens) (UniProt P32246); assay: Displacement of [125I]MIP-1a from human recombinant CCR1 receptor expressed in HEK293 cells at 10 uM after 120 mins by scintillation counting; assay type: cell-based
[18] = target: Vasoactive intestinal polypeptide receptor 1 (Homo sapiens) (UniProt P32241); assay: Displacement of [125I]VIP from human recombinant VPAC1 receptor expressed in CHO cells at 10 uM after 60 mins by scintillation counting; assay type: cell-based
[19] = target: Peroxisome proliferator-activated receptor gamma (Homo sapiens) (UniProt P37231); assay: Displacement of [3H]rosiglitazone from human recombinant PPARgamma receptor expressed in Escherichia coli at 10 uM after 120 mins by scintillation counting
Rattus norvegicus [20] = organism: Rattus norvegicus; assay: Displacement of [35S]TBPS from GABA gated chloride channel in rat cerebral cortex at 10 uM after 120 mins by scintillation counting; assay type: tissue-based
[21] = target: Small conductance calcium-activated potassium channel (Rattus norvegicus) (UniProt P70604+P70606+P70605); assay: Displacement of [125I]apamin from SK […] channel in rat cerebral cortex at 10 uM after 60 mins by scintillation counting; assay type: tissue-based
[22] = target: Sodium-dependent dopamine transporter (Homo sapiens) (UniProt Q01959); assay: Displacement of [3H]BTCP from human recombinant DAT expressed in CHO cells at 10 uM after 120 mins by scintillation counting; assay type: cell-based
[23] = Half life in po dosed rat; assay type: ADME, organism-based; conditions: in vivo
P2X purinoceptor 4 = P2X purinoceptor 4 (Homo sapiens, UniProt Q99571); assay: Antagonist activity at P2X4 receptor; assay type: functional
[24] = target: Gastrin/cholecystokinin type B receptor (Homo sapiens) (UniProt P32239); assay: Displacement of [125I]CCK-8s from human recombinant CCK2 receptor expressed in CHO cells at 10 uM after 60 mins by scintillation counting; assay type: cell-based
Sequence of Gastrin/cholecystokinin type B receptor (Homo sapiens) (P32239 whole entry): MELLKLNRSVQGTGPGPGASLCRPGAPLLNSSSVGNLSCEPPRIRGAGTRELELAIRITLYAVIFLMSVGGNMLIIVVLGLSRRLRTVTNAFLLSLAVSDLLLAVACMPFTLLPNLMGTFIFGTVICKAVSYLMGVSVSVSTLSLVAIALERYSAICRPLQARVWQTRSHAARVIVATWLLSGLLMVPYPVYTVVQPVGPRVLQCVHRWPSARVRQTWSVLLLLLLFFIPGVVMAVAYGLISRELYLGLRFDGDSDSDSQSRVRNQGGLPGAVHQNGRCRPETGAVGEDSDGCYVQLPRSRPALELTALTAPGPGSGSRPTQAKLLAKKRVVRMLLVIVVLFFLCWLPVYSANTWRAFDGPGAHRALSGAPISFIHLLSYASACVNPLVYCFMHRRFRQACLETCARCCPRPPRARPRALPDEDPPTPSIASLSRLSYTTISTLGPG

[25] = target: Tumor necrosis factor (Homo sapiens) (UniProt P01375); assay: Displacement of [125I]TNF-a from TNFalpha in human U937 cells at 10 uM after 120 mins by scintillation counting; assay type: cell-based; conditions: U-937
[26] = target: Substance-P receptor (Homo sapiens) (UniProt P25103); assay: Displacement of [125I]BH-SP from NK1 receptor in human U-373MG cells at 10 uM after 60 mins by scintillation counting; assay type: cell-based; conditions: U-373MG ATCC
Sequence of Substance-P receptor (Homo sapiens) (P25103 whole entry): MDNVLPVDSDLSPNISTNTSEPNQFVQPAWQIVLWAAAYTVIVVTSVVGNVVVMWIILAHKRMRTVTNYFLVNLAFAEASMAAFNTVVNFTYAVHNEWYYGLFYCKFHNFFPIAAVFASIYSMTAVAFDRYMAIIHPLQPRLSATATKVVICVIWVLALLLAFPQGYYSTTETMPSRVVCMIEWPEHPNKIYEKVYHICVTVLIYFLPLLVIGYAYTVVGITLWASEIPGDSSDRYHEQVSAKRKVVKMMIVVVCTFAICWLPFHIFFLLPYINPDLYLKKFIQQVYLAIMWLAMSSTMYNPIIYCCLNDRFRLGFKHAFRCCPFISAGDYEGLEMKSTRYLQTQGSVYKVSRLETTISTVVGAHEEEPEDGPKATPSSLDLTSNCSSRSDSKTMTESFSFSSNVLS

[27] = target: Neuromedin-K receptor (Homo sapiens) (UniProt P29371); assay: Displacement of [3H]SR142801 from human recombinant NK3 receptor expressed in CHO cells at 10 uM after 120 mins by scintillation counting; assay type: cell-based
Sequence of Neuromedin-K receptor (Homo sapiens) (P29371 whole entry): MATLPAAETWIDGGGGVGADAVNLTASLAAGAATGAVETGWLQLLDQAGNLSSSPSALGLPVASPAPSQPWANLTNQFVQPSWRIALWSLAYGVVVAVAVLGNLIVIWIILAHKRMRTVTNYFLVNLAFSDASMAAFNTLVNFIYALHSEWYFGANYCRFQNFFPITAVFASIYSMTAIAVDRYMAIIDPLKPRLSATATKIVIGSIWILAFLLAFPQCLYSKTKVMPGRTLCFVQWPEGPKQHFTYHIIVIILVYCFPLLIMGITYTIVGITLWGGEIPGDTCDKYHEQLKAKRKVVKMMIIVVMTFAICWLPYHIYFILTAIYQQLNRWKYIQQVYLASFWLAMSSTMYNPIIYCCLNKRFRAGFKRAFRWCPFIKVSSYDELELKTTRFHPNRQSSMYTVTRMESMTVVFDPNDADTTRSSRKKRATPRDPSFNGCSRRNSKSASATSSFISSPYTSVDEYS

[28] = target: Neuropeptide Y receptor type 1 (Homo sapiens) (UniProt P25929); assay: Displacement of [125I]peptideYY from neuropeptide Y1 receptor in human SK-N-MC cells at 10 uM after 120 mins by scintillation counting; assay type: cell-based
Sequence of Neuropeptide Y receptor type 1 (Homo sapiens) (P25929 whole entry): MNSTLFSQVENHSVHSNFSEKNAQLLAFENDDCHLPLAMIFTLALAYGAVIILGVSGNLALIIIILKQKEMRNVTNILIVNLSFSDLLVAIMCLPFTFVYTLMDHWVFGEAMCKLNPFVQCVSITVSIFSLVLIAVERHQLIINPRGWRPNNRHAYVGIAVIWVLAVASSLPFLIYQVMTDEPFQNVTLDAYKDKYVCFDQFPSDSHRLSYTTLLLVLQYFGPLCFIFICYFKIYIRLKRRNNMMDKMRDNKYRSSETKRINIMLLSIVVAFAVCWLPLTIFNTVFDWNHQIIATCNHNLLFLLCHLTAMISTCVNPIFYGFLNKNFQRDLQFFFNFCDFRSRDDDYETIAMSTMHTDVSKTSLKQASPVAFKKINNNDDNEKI

CHO = assay: Displacement of [3H]DADLE from human recombinant delta2 opioid receptor expressed in CHO cells at 10 uM after 120 mins by scintillation counting; assay type: cell-based
[29] = target: Kappa-type opioid receptor (Rattus norvegicus) (UniProt P34975); assay: Displacement of [3H]U 69593 from rat recombinant kappa opioid receptor expressed in CHO cells at 10 uM after 60 mins by scintillation counting; assay type: cell-based
[30] = target: Adenosine receptor A2a (Homo sapiens) (UniProt P29274); assay: Displacement of [3H]CGS 21680 from human adenosine A2A receptor expressed in HEK293 cells at 10 uM after 120 mins by scintillation counting
Sequence of Adenosine receptor A2a (Homo sapiens) (P29274 whole entry, looked up): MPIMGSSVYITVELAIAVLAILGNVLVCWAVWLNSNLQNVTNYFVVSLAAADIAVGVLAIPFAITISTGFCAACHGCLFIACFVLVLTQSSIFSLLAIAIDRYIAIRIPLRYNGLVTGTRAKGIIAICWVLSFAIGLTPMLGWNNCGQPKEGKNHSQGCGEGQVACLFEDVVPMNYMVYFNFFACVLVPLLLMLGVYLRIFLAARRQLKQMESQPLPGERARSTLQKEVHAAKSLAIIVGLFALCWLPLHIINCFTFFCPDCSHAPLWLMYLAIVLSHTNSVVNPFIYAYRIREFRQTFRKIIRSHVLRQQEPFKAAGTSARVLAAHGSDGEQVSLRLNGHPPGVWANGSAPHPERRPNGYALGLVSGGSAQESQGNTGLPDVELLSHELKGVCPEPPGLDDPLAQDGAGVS

Sequence of Adenosine receptor A1 (Homo sapiens) (P30542 whole entry): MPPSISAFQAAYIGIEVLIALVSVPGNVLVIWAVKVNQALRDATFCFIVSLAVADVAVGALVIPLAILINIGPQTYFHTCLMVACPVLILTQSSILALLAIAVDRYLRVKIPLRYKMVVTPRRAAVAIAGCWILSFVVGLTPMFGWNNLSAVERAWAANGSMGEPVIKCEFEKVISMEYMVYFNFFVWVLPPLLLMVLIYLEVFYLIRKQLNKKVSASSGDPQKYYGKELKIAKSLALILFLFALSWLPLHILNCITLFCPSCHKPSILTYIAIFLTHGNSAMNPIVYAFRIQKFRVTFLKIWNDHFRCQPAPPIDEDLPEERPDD

`CC(=O)N1CCN(C[C@@H](C)NC(=O)c2cc3c(-c4ccccc4)nn(C)c3s2)CC1` gave an Activity [1] greater than 50%, an Activity [2] greater than 50% and an Activity [3] greater than 50%. The Activity [4] was greater than 50%, the Activity [5] was greater than 50% and the Activity [6] was greater than 50%. For the same compound, the Activity [7] was greater than 50%, the Activity [8] was greater than 50% and the Activity [9] was greater than 50%. For the same compound, the Activity (Rattus norvegicus [10]) was greater than 50%, the Activity [11] was greater than 50% and the Activity [12] was greater than 50%. It also gave an Activity [13] greater than 50%, an Activity [14] greater than 50% and an Activity [15] greater than 50%. The Activity (Rattus norvegicus [16]) was greater than 50%, the Activity [17] was greater than 50% and the Activity [18] was greater than 50%. The Activity [19] was greater than 50%, the Activity (Rattus norvegicus [20]) was greater than 50% and the Activity [21] was greater than 50%. For the same compound, the Activity [22] was greater than 50%, the half-life [23] was 1.6 h and the pIC50 (P2X purinoceptor 4) was less than 5.00. The Activity [24] was greater than 50%, the Activity [25] was greater than 50% and the Activity [26] was greater than 50%. It also gave an Activity [27] greater than 50%, an Activity [28] greater than 50% and an Activity (CHO) greater than 50%. For the same compound, the Activity [29] was greater than 50% and the Activity [30] was greater than 50%.
